Assay results reported in patent publication US9546173B2 (Novartis AG, priority 2012, dated 2017).
Read-outs that look alike come from different tables or passages of the source.

Legend:
activated ERK2 = activated ERK2 (Homo sapiens (Human), UniProt P28482); assay: Activated ERK2 kinase assay (AlphaScreen, ERKtide peptide phosphorylation); format: biochemical; settings: 35 μM ATP, 30 min preincubation, read-out: ERK2 IC50
RSK2 = RSK2 (Homo sapiens (Human), UniProt P51812); assay: In vitro inhibition of RSK2; format: biochemical; settings: in vitro activity on RSK2; where multiple measurements were made, each value is reported
Experimental: The following Table 3 lists compounds that were tested for inhibition of RSK; the IC50 values are in micromolar units, and refer to inhibition of RSK1 and RSK2, respectively. Where multiple measurements were made, each value is reported.

[1] = […] ERK2, 200 nM ERKtide peptide

activated ERK2, sequence (P28482 whole entry): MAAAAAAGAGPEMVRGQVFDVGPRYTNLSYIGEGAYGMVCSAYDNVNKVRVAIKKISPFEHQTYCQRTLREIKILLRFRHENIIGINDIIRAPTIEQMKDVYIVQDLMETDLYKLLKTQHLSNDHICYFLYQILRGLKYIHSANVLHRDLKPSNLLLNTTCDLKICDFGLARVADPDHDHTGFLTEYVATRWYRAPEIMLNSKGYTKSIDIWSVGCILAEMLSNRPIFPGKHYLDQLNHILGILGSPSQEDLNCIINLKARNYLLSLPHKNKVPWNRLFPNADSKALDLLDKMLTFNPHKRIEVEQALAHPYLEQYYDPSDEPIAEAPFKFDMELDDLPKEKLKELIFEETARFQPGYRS
RSK2, sequence (P51812 whole entry, species assumed): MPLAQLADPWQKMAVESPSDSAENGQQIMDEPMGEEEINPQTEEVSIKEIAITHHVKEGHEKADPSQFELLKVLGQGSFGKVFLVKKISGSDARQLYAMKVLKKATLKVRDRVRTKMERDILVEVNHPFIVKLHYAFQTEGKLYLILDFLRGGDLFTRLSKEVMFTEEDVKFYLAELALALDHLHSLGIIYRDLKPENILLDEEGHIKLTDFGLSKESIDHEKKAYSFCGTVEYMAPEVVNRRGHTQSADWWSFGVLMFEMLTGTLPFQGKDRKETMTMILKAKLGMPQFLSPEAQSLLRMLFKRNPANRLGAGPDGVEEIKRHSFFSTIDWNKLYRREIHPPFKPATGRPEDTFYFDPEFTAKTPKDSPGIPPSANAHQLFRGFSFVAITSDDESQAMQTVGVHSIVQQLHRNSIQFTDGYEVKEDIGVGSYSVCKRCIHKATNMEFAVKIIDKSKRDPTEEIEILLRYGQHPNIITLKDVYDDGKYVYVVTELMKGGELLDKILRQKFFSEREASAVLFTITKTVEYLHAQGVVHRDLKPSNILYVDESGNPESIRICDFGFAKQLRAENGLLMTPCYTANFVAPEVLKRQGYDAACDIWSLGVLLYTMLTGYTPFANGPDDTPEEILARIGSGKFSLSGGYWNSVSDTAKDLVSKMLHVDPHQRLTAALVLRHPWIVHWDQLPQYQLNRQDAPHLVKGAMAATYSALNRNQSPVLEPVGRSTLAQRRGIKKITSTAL

Row | Structure (SMILES) | IC50 (activated ERK2; 0.25 nM ERK2, 200 nM ERKtide peptide) [µM] | IC50 (RSK2) [µM] | IC50 (activated ERK2; [1]) [µM]
1 | CC1(C)c2cnc(Nc3ccccc3)nc2CN1C(=O)NC1CCOCC1 [compound 165, 5,5-dimethyl-2-(phenylamino)-N-(tetrahydro-2H-pyran-4-yl)-5H-pyrrolo[3,4-d]pyrimidine-6(7H)-carboxamide] | 18.9 | 15.2 | 
2 | CC1(C)c2cnc(Nc3ccccc3)nc2CN1C(=O)NCC1CCN(Cc2ccccc2)C1 (stereo not drawn) [compound 159, N-((1-benzylpyrrolidin-3-yl)methyl)-5,5-dimethyl-2-(phenylamino)-5H-pyrrolo[3,4-d]pyrimidine-6(7H)-carboxamide] |  | 5.65 | 19.6
3 | CC1(C)c2cnc(Nc3ccccc3)nc2CN1C(=O)NCc1cocn1 [compound 162, 5,5-dimethyl-N-(oxazol-4-ylmethyl)-2-(phenylamino)-5H-pyrrolo[3,4-d]pyrimidine-6(7H)-carboxamide] |  | 8.21 | 16.2
4 | CN(C)CCNC(=O)N1Cc2nc(Nc3ccccc3)ncc2C1(C)C [compound 157, N-(2-(dimethylamino)ethyl)-5,5-dimethyl-2-(phenylamino)-5H-pyrrolo[3,4-d]pyrimidine-6(7H)-carboxamide] |  | 3.85 | 25
5 | CN(C)Cc1ccccc1CNC(=O)N1Cc2nc(Nc3ccccc3)ncc2C1(C)C [compound 166, N-(2-((dimethylamino)methyl)benzyl)-5,5-dimethyl-2-(phenylamino)-5H-pyrrolo[3,4-d]pyrimidine-6(7H)-carboxamide] |  | 16.3 | 44.8
6 | CN(C)[C@@H]1CCCC[C@H]1NC(=O)N1Cc2nc(Nc3ccccc3)ncc2C1(C)C [compound 161, N-((1R,2R)-2-(dimethylamino)cyclohexyl)-5,5-dimethyl-2-(phenylamino)-5H-pyrrolo[3,4-d]pyrimidine-6(7H)-carboxamide] |  | 8.2 | 125
7 | C[C@@H](NC(=O)N1Cc2nc(Nc3ccccc3)ncc2C1(C)C)c1ccccc1 [compound 156, (R)-5,5-dimethyl-2-(phenylamino)-N-(1-phenylethyl)-5H-pyrrolo[3,4-d]pyrimidine-6(7H)-carboxamide] |  | 2.57 | 
8 | CN1CC(NC(=O)N2Cc3nc(Nc4ccccc4)ncc3C2(C)C)C1 [compound 153, 5,5-dimethyl-N-(1-methylazetidin-3-yl)-2-(phenylamino)-5H-pyrrolo[3,4-d]pyrimidine-6(7H)-carboxamide] |  | 1.37 | 125
9 | CN1CCC(NC(=O)N2Cc3nc(Nc4ccccc4)ncc3C2(C)C)C1 (stereo not drawn) [compound 158, 5,5-dimethyl-N-(1-methylpyrrolidin-3-yl)-2-(phenylamino)-5H-pyrrolo[3,4-d]pyrimidine-6(7H)-carboxamide] |  | 3.88 | 41.1
10 | C[C@H](NC(=O)N1Cc2nc(Nc3ccccc3)ncc2C1(C)C)c1ccccc1 [compound 169, (S)-5,5-dimethyl-2-(phenylamino)-N-(1-phenylethyl)-5H-pyrrolo[3,4-d]pyrimidine-6(7H)-carboxamide] |  | > 25 | 
11 | Cn1cncc1CNC(=O)N1Cc2nc(Nc3ccccc3)ncc2C1(C)C [compound 160, 5,5-dimethyl-N-((1-methyl-1H-imidazol-5-yl)methyl)-2-(phenylamino)-5H-pyrrolo[3,4-d]pyrimidine-6(7H)-carboxamide] |  | 5.65 | 36.6
12 | CC1(C)c2cnc(Nc3ccccc3)nc2CN1C(=O)NCCO [compound 164, N-(2-hydroxyethyl)-5,5-dimethyl-2-(phenylamino)-5H-pyrrolo[3,4-d]pyrimidine-6(7H)-carboxamide] |  | 14 | 18.4
13 | CC(Nc1ncc2c(n1)CN(C(=O)N[C@H](CO)c1ccccc1)C2(C)C)C1CCCO1 (stereo partly drawn) [compound 73, N-((S)-2-hydroxy-1-phenylethyl)-5,5-dimethyl-2-((1-(tetrahydrofuran-2-yl)ethyl)amino)-5H-pyrrolo[3,4-d]pyrimidine-6(7H)-carboxamide] |  |  | 0.315
14 | CC1(C)c2cnc(NC3CCOCC3)nc2CN1C(=O)NCc1ccc(Oc2ccccc2)cc1 [compound 133, 5,5-dimethyl-N-(4-phenoxybenzyl)-2-((tetrahydro-2H-pyran-4-yl)amino)-5H-pyrrolo[3,4-d]pyrimidine-6(7H)-carboxamide] |  |  | 0.011
15 | C[C@@H](NC(=O)N1Cc2nc(NC3CCOCC3)ncc2C1(C)C)c1cccc(Cl)c1 [compound 22, (R)-N-(1-(3-chlorophenyl)ethyl)-5,5-dimethyl-2-((tetrahydro-2H-pyran-4-yl)amino)-5H-pyrrolo[3,4-d]pyrimidine-6(7H)-carboxamide] |  |  | 0.002
16 | Cc1cccc(S(=O)(=O)N2CCC[C@@H](NC(=O)N3Cc4nc(NC5CCOCC5)ncc4C3(C)C)C2)c1 [compound 113, (R)-5,5-dimethyl-2-((tetrahydro-2H-pyran-4-yl)amino)-N-(1-(m-tolylsulfonyl)piperidin-3-yl)-5H-pyrrolo[3,4-d]pyrimidine-6(7H)-carboxamide] |  |  | 0.045

Row | Structure (SMILES) | IC50 (activated ERK2; 0.25 nM ERK2, 200 nM ERKtide peptide) [µM] | IC50 (RSK2) [µM] | IC50 (activated ERK2; [1]) [µM]
17 | CC1(C)c2cnc(NC3CCOCC3)nc2CN1C(=O)N[C@@H]1CCCNC1 [compound 7, (R)-5,5-dimethyl-N-(piperidin-3-yl)-2-((tetrahydro-2H-pyran-4-yl)amino)-5H-pyrrolo[3,4-d]pyrimidine-6(7H)-carboxamide] |  |  | 15.3
18 | CC1(C)c2cnc(NC3CCCCC3)nc2CN1C(=O)N[C@H](CO)c1ccccc1 [compound 86, (S)-2-(cyclohexylamino)-N-(2-hydroxy-1-phenylethyl)-5,5-dimethyl-5H-pyrrolo[3,4-d]pyrimidine-6(7H)-carboxamide] |  |  | 0.022
19 | CC1(C)c2cnc(NC3CCOCC3)nc2CN1C(=O)N[C@H](CO)c1cccc(Cl)c1 [compound 2, (S)-N-(1-(3-chlorophenyl)-2-hydroxyethyl)-5,5-dimethyl-2-((tetrahydro-2H-pyran-4-yl)amino)-5H-pyrrolo[3,4-d]pyrimidine-6(7H)-carboxamide] |  |  | 0.004
20 | CC1(C)c2cnc(NCC3CC3)nc2CN1C(=O)N[C@H](CO)c1ccccc1 [compound 53, (S)-2-((cyclopropylmethyl)amino)-N-(2-hydroxy-1-phenylethyl)-5,5-dimethyl-5H-pyrrolo[3,4-d]pyrimidine-6(7H)-carboxamide] |  |  | 0.505
21 | CC1(C)c2cnc(NC3CCOCC3)nc2CN1C(=O)N[C@H](CO)c1cccc(F)c1 [compound 128, (S)-N-(1-(3-fluorophenyl)-2-hydroxyethyl)-5,5-dimethyl-2-((tetrahydro-2H-pyran-4-yl)amino)-5H-pyrrolo[3,4-d]pyrimidine-6(7H)-carboxamide] |  |  | 0.009
22 | CC1(C)c2cnc(NC3CCOCC3)nc2CN1C(=O)NCc1ccccc1 [compound 46, N-benzyl-5,5-dimethyl-2-((tetrahydro-2H-pyran-4-yl)amino)-5H-pyrrolo[3,4-d]pyrimidine-6(7H)-carboxamide] |  |  | 0.031
23 | CC1(C)c2cnc(NC3CCOCC3)nc2CN1C(=O)N[C@H]1CCCNC1 [compound 6, (S)-5,5-dimethyl-N-(piperidin-3-yl)-2-((tetrahydro-2H-pyran-4-yl)amino)-5H-pyrrolo[3,4-d]pyrimidine-6(7H)-carboxamide] |  |  | 2.34
24 | Cn1ccc(Nc2ncc3c(n2)CN(C(=O)N[C@H](CO)c2ccccc2)C3(C)C)n1 [compound 71, (S)-N-(2-hydroxy-1-phenylethyl)-5,5-dimethyl-2-((1-methyl-1H-pyrazol-3-yl)amino)-5H-pyrrolo[3,4-d]pyrimidine-6(7H)-carboxamide] |  |  | 2.55
25 | CC1(C)c2cnc(NC3CCOCC3)nc2CN1C(=O)NCc1ccc(Cl)c(Cl)c1 [compound 126, N-(3,4-dichlorobenzyl)-5,5-dimethyl-2-((tetrahydro-2H-pyran-4-yl)amino)-5H-pyrrolo[3,4-d]pyrimidine-6(7H)-carboxamide] |  |  | 0.001
26 | CC1(C)c2cnc(NC3CCS(=O)(=O)C3)nc2CN1C(=O)N[C@H](CO)c1ccccc1 (stereo partly drawn) [compound 70, 2-((1,1-dioxidotetrahydrothiophen-3-yl)amino)-N-((S)-2-hydroxy-1-phenylethyl)-5,5-dimethyl-5H-pyrrolo[3,4-d]pyrimidine-6(7H)-carboxamide] |  |  | 0.932
27 | CC1(C)c2cnc(NC3CCOCC3)nc2CN1C(=O)NCc1ccc(F)cc1 [compound 24, N-(4-fluorobenzyl)-5,5-dimethyl-2-((tetrahydro-2H-pyran-4-yl)amino)-5H-pyrrolo[3,4-d]pyrimidine-6(7H)-carboxamide] |  |  | 0.022
28 | CC1(C)c2cnc(NCCC#N)nc2CN1C(=O)N[C@H](CO)c1ccccc1 [compound 58, (S)-2-((2-cyanoethyl)amino)-N-(2-hydroxy-1-phenylethyl)-5,5-dimethyl-5H-pyrrolo[3,4-d]pyrimidine-6(7H)-carboxamide] |  |  | 1.53
29 | CCNC(=O)N1Cc2nc(NC3CCOCC3)ncc2C1(C)C [compound 50, N-ethyl-5,5-dimethyl-2-((tetrahydro-2H-pyran-4-yl)amino)-5H-pyrrolo[3,4-d]pyrimidine-6(7H)-carboxamide] |  |  | 0.839
30 | CC1(CO)c2cnc(NC3CCOCC3)nc2CN1C(=O)NCc1ccccc1 (stereo not drawn) [compound 90, N-benzyl-5-(hydroxymethyl)-5-methyl-2-((tetrahydro-2H-pyran-4-yl)amino)-5H-pyrrolo[3,4-d]pyrimidine-6(7H)-carboxamide] |  |  | 4.02
31 | CN1CCC(Nc2ncc3c(n2)CN(C(=O)N[C@H](CO)c2ccccc2)C3(C)C)CC1=O (stereo partly drawn) [compound 83, N-((S)-2-hydroxy-1-phenylethyl)-5,5-dimethyl-2-((1-methyl-2-oxopiperidin-4-yl)amino)-5H-pyrrolo[3,4-d]pyrimidine-6(7H)-carboxamide] |  |  | 1.16
32 | CNC(=O)c1cccc(CNC(=O)N2Cc3nc(NC4CCOCC4)ncc3C2(C)C)c1 [compound 100, 5,5-dimethyl-N-(3-(methylcarbamoyl)benzyl)-2-((tetrahydro-2H-pyran-4-yl)amino)-5H-pyrrolo[3,4-d]pyrimidine-6(7H)-carboxamide] |  |  | 0.045
